Test system: human neuroblastoma cell lines (SH-SY5Y, SKNF-1, NGP, IMR-32 and SK-N-BE(2) cells)
Experiment: MTT cell viability assay
Format: cell-based
Excerpt: Human neuroblastoma cell lines (SH-SY5Y, IMR-32, SK-N-BE(2) and SKNF-1 cells) were obtained from The American Type Culture Collection (ATCC; Manassas, Va.), and NGP cells were kind gift from Garrett M. Brodeur (The Children's Hospital of Philadelphia, Philadelphia, Pa.). All cell lines were maintained in complete Dulbecco's Modified Eagle's Medium (DMEM) supplemented with 10% fetal bovine serum (FBS; Atlanta Biologicals, Lawrenceville, Ga.) and 1× antibiotic-antimycotic solution (containing 100 U/ml penicillin, 100 μg/ml streptomycin and 0.25 μg/ml amphotericin B), and grown at 37° C. in a humidified incubator with 5% CO2. Stock solution of SsnB was prepared in dimethyl sulfoxide (DMSO). Cells treated with different concentrations of SsnB in DMEM with 10% FBS were grown for subsequent days. Cells treated with equal volume of DMSO were used as control.
The viability of SsnB-treated cells was determined by MTT assay following manufacturer's instructions (Roche diagnostics corporation, Indianapolis, Ind.). Briefly, cells (1×10^4 cells/well) grown in 96-well cell culture plate were incubated with or without SsnB in 100 μl of complete culture medium with 10% FBS. After treatments, cells were incubated with 10 μl of MTT reagent for 4 h and then incubated overnight in solubilization buffer (100 μl) at 37° C. Absorbance of the formazan product was read at 575 nm in spectramax spectrophotometer (Molecular Devices, Sunnyvale, Calif.). A reference wavelength of 690 nm was used to detect background. The measured absorption directly correlated with the number of viable cells in culture. The experiments were performed in triplicate and repeated at least three times.
MTT assay was carried out to examine the effects of SsnB on viability of all the above listed neuroblastoma cells. After 2 days (SH-SY5Y and IMR-32), 3 days (NGP cells) or 4 days (SKNF-1 and SK-N-BE(2) cells) treatment with SsnB (1, 5, 10 and 20 μM), MTT cell viability assays were performed.

[1] = Homo sapiens, MTT, 2 days (SH-SY5Y, IMR-32), 3 days (NGP), 4 days (SKNF-1, SK-N-BE(2)), range over the cell lines

SMILES: O=c1occ2c3c(ccc(O)c13)Oc1ccc(O)cc1-2 [SsnB, 8,5′-dihydroxy-4-phenyl-5,2′-oxidoisocoumarin]
- IC20 [1]: 6 to 8 µM
- IC50 [1]: 10 to 12 µM
- sensitivity towards SsnB treatment (NGP cell): moderately sensitive
- sensitivity towards SsnB treatment (SH-SY5Y and IMR-32 cells): most sensitive
- sensitivity towards SsnB treatment (SKNF-1 and SK-N-BE(2) cell lines): least sensitive
- cell survival vs DMSO (SsnB 1 μM or 5 μM, p>0.05): No significant difference in cell survival
- neuroblastoma cell death (SsnB 10 μM alone, MTT, range over cell lines (FIG. 5A)): 40-60%
- cell viability vs DMSO (SsnB at and above 10 μM, p<0.05): significantly reduced the viability
